Legend:
[1] = Ratio of drug level in blood to plasma in Sprague-Dawley rat at 0.25 uM after 10 mins by equilibrium dialysis technique; assay type: ADME; conditions: blood and plasma
[2] = Clearance in cynomolgus monkey at 1 mg/kg, iv; assay type: ADME, organism-based, Macaca fascicularis; design: dose 1 mg/kg, route intravenous; conditions: in vivo
[3] = AUC in cynomolgus monkey at 10 mg/kg, po; assay type: ADME, organism-based, Macaca fascicularis; design: dose 10 mg/kg, route oral; conditions: plasma
[4] = Cmax in Sprague-Dawley rat at 10 mg/kg, po; assay type: ADME, organism-based; design: dose 10 mg/kg, route oral; conditions: in vivo
[5] = Half life in beagle dog at 3 mg/kg, po; assay type: ADME, organism-based, Canis lupus familiaris; design: dose 3 mg/kg, route oral; conditions: in vivo
[6] = Half life in cynomolgus monkey at 10 mg/kg, po in presence of ketoconazole; assay type: ADME, organism-based, Macaca fascicularis; design: dose 10 mg/kg, route oral; conditions: in vivo
[7] = Tmax in Sprague-Dawley rat at 10 mg/kg, po; assay type: ADME, organism-based; design: dose 10 mg/kg, route oral; conditions: in vivo
Cynomolgus monkey [8] = assay: Unbound intrinsic clearance in cynomolgus monkey; assay type: ADME, organism-based, Macaca fascicularis; conditions: in vivo
[9] = Fraction unbound in beagle dog liver microsomes at 0.25 uM by equilibrium dialysis technique; assay type: ADME, Canis lupus familiaris
[10] = AUC in cynomolgus monkey at 1 mg/kg, iv; assay type: ADME, organism-based, Macaca fascicularis; design: dose 1 mg/kg, route intravenous; conditions: plasma
[11] = Oral bioavailability in cynomolgus monkey at 3 mg/kg; assay type: ADME, organism-based, Macaca fascicularis; conditions: in vivo
[12] = Cmax in double-cannulated Sprague-Dawley rat jugular vein at 10 mg/kg, po; assay type: ADME, organism-based; design: dose 10 mg/kg, route oral
[13] = Tmax in Sprague-Dawley rat at 3 mg/kg, po; assay type: ADME, organism-based; design: dose 3 mg/kg, route oral; conditions: in vivo
[14] = Cmax in beagle dog at 3 mg/kg, po; assay type: ADME, organism-based, Canis lupus familiaris; design: dose 3 mg/kg, route oral; conditions: in vivo
[15] = Ratio of drug level in blood to plasma in beagle dog at 0.25 uM after 10 mins by equilibrium dialysis technique; assay type: ADME, Canis lupus familiaris; conditions: blood and plasma
Cynomolgus monkey [16] = assay: Ratio of dose normalized AUC in cynomolgus monkey at 10 mg/kg, po in presence of ketoconazole to dose normalized AUC in cynomolgus monkey at 10 mg/kg, po; assay type: ADME, organism-based, Macaca fascicularis; conditions: in vivo
[17] = Cmax in Sprague-Dawley rat at 3 mg/kg, po; assay type: ADME, organism-based; design: dose 3 mg/kg, route oral; conditions: in vivo
[18] = Solubility of the compound in phosphate buffered saline at pH 7 to 7.2; assay type: physicochemical
[19] = Half life in cynomolgus monkey at 3 mg/kg, po in presence of ketoconazole; assay type: ADME, organism-based, Macaca fascicularis; design: dose 3 mg/kg, route oral; conditions: in vivo
[20] = Drug metabolism in Sprague-Dawley rat intestinal microsomes; assay type: ADME, Intestine, Microsome
[21] = Cmax in cynomolgus monkey at 10 mg/kg, po in presence of ketoconazole; assay type: ADME, organism-based, Macaca fascicularis; design: dose 10 mg/kg, route oral; conditions: in vivo
[22] = Half life in beagle dog at 1 mg/kg, iv; assay type: ADME, organism-based, Canis lupus familiaris; design: dose 1 mg/kg, route intravenous; conditions: in vivo
[23] = AUC in Sprague-Dawley rat at 30 mg/kg, po; assay type: ADME, organism-based; design: dose 30 mg/kg, route oral; conditions: plasma
[24] = Tmax in cynomolgus monkey at 10 mg/kg, po in presence of ketoconazole; assay type: ADME, organism-based, Macaca fascicularis; design: dose 10 mg/kg, route oral; conditions: in vivo
[25] = AUC in beagle dog at 1 mg/kg, iv; assay type: ADME, organism-based, Canis lupus familiaris; design: dose 1 mg/kg, route intravenous; conditions: plasma
[26] = Half life in Sprague-Dawley rat at 10 mg/kg, po; assay type: ADME, organism-based; design: dose 10 mg/kg, route oral; conditions: in vivo
[27] = Drug metabolism in cynomolgus monkey liver microsomes after 15 mins by Michaelis-Menten plot analysis; assay type: ADME, Macaca fascicularis
Rattus norvegicus = species on record: Rattus norvegicus; assay: Unbound intrinsic clearance in Sprague-Dawley rat; assay type: ADME, organism-based; conditions: in vivo
[28] = Drug metabolism in cynomolgus monkey intestinal microsomes by Michaelis-Menten plot analysis; assay type: ADME, Macaca fascicularis, Intestine, Microsome
[29] = Cmax in cynomolgus monkey at 3 mg/kg, po in presence of ketoconazole; assay type: ADME, organism-based, Macaca fascicularis; design: dose 3 mg/kg, route oral; conditions: in vivo
[30] = Ratio of drug level in brain to plasma in wild-type mouse at 3 mg/kg, po; assay type: ADME, organism-based; design: dose 3 mg/kg, route oral; conditions: brain and plasma
[31] = Oral bioavailability in Sprague-Dawley rat at 30 mg/kg; assay type: ADME, organism-based; conditions: in vivo
[32] = target: MDR1A (P-glycoprotein, ABCB1) (Mus musculus, UniProt P21447); assay: Activity of mouse MDR1A expressed in pig LLC-PK1 cells assessed as efflux ratio of permeability from basolateral to apical side to apical to basolateral side at 1 uM after 2 hrs; assay type: ADME, cell-based
Chain of MDR1A (P-glycoprotein, ABCB1) (P21447 whole entry): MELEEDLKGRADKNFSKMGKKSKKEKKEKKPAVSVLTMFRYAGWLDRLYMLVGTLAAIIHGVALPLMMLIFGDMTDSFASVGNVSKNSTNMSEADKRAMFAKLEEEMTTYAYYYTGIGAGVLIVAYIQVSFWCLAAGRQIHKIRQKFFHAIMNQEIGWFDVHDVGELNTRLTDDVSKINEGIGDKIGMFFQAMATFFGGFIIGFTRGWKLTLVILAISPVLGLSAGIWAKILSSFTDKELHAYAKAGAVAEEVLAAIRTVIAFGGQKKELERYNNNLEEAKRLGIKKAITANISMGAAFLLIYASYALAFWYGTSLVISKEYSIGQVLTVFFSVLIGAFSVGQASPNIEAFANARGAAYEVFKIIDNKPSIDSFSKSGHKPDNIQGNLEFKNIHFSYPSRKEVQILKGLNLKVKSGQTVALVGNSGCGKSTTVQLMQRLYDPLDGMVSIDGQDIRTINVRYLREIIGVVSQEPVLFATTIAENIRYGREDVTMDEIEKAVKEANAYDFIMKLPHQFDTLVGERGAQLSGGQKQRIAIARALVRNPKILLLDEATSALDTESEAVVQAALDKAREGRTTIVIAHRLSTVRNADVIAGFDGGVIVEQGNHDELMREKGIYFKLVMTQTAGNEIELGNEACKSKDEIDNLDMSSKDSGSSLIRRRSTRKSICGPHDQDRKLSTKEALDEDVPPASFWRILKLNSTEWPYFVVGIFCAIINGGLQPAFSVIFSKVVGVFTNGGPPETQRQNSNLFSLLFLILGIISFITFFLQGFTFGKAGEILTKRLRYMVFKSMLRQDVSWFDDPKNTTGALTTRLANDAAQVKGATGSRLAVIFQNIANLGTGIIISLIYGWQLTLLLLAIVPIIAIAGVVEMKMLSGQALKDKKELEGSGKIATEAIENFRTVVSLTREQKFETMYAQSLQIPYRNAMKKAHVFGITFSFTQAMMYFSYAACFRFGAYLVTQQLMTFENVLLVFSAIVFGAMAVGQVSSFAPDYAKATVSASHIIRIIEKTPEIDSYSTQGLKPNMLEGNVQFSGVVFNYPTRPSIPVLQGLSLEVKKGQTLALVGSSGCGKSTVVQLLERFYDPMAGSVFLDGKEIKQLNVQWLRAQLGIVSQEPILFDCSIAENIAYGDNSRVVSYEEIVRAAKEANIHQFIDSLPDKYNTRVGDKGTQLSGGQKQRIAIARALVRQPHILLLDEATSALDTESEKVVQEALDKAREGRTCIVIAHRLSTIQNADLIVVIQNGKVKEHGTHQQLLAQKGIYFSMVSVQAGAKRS

Liver microsome = assay: (§1) Drug metabolism in beagle dog liver microsomes after 30 mins by Michaelis-Menten plot analysis; assay type: ADME, Canis lupus familiaris; conditions: microsomes, 0.5 h
[33] = as §1; assay type: ADME, Canis lupus familiaris; conditions: beagle, liver microsomes
[34] = Blood clearance in beagle dog; assay type: ADME, organism-based, Canis lupus familiaris
Cynomolgus monkey [35] = assay: Ratio of dose normalized Cmax in cynomolgus monkey at 10 mg/kg, po in presence of ketoconazole to dose normalized Cmax in cynomolgus monkey at 10 mg/kg, po; assay type: ADME, organism-based, Macaca fascicularis; conditions: in vivo
[36] = Half life in Sprague-Dawley rat at 3 mg/kg, po; assay type: ADME, organism-based; design: dose 3 mg/kg, route oral; conditions: in vivo
[37] = Half life in cynomolgus monkey at 1 mg/kg, iv in presence of ketoconazole; assay type: ADME, organism-based, Macaca fascicularis; design: dose 1 mg/kg, route intravenous; conditions: in vivo
[38] = Cmax in cynomolgus monkey at 3 mg/kg, po; assay type: ADME, organism-based, Macaca fascicularis; design: dose 3 mg/kg, route oral; conditions: in vivo
[39] = Cmax in double-cannulated Sprague-Dawley rat portal vein at 10 mg/kg, po; assay type: ADME, organism-based; design: dose 10 mg/kg, route oral
[40] = Half life in cynomolgus monkey at 3 mg/kg, po; assay type: ADME, organism-based, Macaca fascicularis; design: dose 3 mg/kg, route oral; conditions: in vivo
[41] = Tmax in wild-type mouse at 3 mg/kg, po; assay type: ADME, organism-based; design: dose 3 mg/kg, route oral; conditions: in vivo
[42] = AUC in MDR1A/1B knock-out mouse at 3 mg/kg, po; assay type: ADME, organism-based; design: dose 3 mg/kg, route oral; conditions: plasma
[43] = AUC in Sprague-Dawley rat at 3 mg/kg, po; assay type: ADME, organism-based; design: dose 3 mg/kg, route oral; conditions: plasma
[44] = Oral bioavailability in Sprague-Dawley rat at 3 mg/kg; assay type: ADME, organism-based; conditions: in vivo
[45] = Half life in beagle dog at 10 mg/kg, po; assay type: ADME, organism-based, Canis lupus familiaris; design: dose 10 mg/kg, route oral; conditions: in vivo
[46] = AUC in Sprague-Dawley rat at 1 mg/kg, iv; assay type: ADME, organism-based; design: dose 1 mg/kg, route intravenous; conditions: plasma
[47] = AUC in cynomolgus monkey at 3 mg/kg, po in presence of ketoconazole; assay type: ADME, organism-based, Macaca fascicularis; design: dose 3 mg/kg, route oral; conditions: plasma
[48] = Oral bioavailability in beagle dog at 3 mg/kg; assay type: ADME, organism-based, Canis lupus familiaris; conditions: in vivo
[49] = Half life in Sprague-Dawley rat at 30 mg/kg, po; assay type: ADME, organism-based; design: dose 30 mg/kg, route oral; conditions: in vivo
[50] = Tmax in cynomolgus monkey at 10 mg/kg, po; assay type: ADME, organism-based, Macaca fascicularis; design: dose 10 mg/kg, route oral; conditions: in vivo

Cc1nn(C[C@H](F)CN2C3CCC2CC(OCc2cccc(F)c2)C3)c(=O)n1C (some centres undefined)
blood plasma ratio at 10 min, 0.25 µM [1]: 0.89 | clearance [2]: 22.5 mL/min/kg | AUC [3]: 1580 ng·h/mL | Cmax [4]: 200 ng/mL | half-life [5]: 0.91 h | half-life [6]: 2.73 h | Tmax [7]: 0.25 h | CL free (Cynomolgus monkey [8]): 84 µL/min/mg | fraction unbound at 0.25 µM [9]: 1 | AUC [10]: 700 ng·h/mL | bioavailability [11]: 7.8% | Cmax [12]: 1040 ng/mL | Tmax [13]: 0.25 h | Cmax [14]: 20 ng/mL | blood plasma ratio at 10 min, 0.25 µM [15]: 0.86 | Ratio (Cynomolgus monkey [16]): 6.3 | Cmax [17]: 20 ng/mL | solubility [18]: > 2000 µg/mL | half-life [19]: 2.2 h | Drug metabolism [20]: metabolite_not_detected | Cmax [21]: 1520 ng/mL | half-life [22]: 1.04 h | AUC [23]: 1420 ng·h/mL | Tmax [24]: 2 h | AUC [25]: 620 ng·h/mL | half-life [26]: 0.57 h | Km at 0.25 h ([27]; liver microsomes): 42.4 µM | Vmax ([27]; microsomes, 0.25 h): 3.58 nmol/min/mg | CL free (Rattus norvegicus): 196 µL/min/mg | Km ([28]; intestinal microsomes): 34.6 µM | Vmax ([28]; microsomes): 0.66 nmol/min/mg | Cmax [29]: 400 ng/mL | Kp [30]: 2.4 | bioavailability [31]: 15.1% | efflux ratio at 2 h, 1 µM [32]: 3.14 | Vmax (Liver microsome): 0.07 nmol/min/mg | Km at 0.5 h [33]: 0.41 µM | clearance [34]: 32.8 mL/min/kg | Ratio (Cynomolgus monkey [35]): 4.5 | half-life [36]: 0.5 h | half-life [37]: 1.96 h | Cmax [38]: 40 ng/mL | Cmax [39]: 10600 ng/mL | half-life [40]: 1.59 h | Tmax [41]: 0.5 h | AUC [42]: 240 ng·h/mL | AUC [43]: 20 ng·h/mL | bioavailability [44]: 2.6% | half-life [45]: 1.82 h | AUC [46]: 310 ng·h/mL | AUC [47]: 1550 ng·h/mL | bioavailability [48]: 1.2% | half-life [49]: 1.36 h | Tmax [50]: 1 h

From ChEMBL document CHEMBL3525917, “Species difference in the mechanism of nonlinear pharmacokinetics of E2074, a novel sodium channel inhibitor, in rats, dogs, and monkeys” (Drug Metab Dispos, 2013)
